What was measured:
[1] = test system: mdx mice; experiment: Dosing of metabolic and endocrine biomarkers in blood, serum and tissues, mdx mice, long-term (40 weeks) weekly prednisone; type: in vivo
Protocol: (§1) Animal handling and steroid regimens. Mice were housed in a pathogen-free dedicated vivarium in accordance with Institutional Animal Care and Use Committee (IACUC) guidelines. Euthanasia was performed through carbon dioxide inhalation followed by cervical dislocation and heart removal. All methods using living animals in this study were performed in ethical accordance with the American Veterinary Medical Association (AVMA) and under protocols fully approved by both the Institutional Animal Care and Use Committee (IACUC) at Northwestern University Feinberg School of Medicine (protocol number ISO00000761). Consistent with the ethical approvals, all efforts were made to minimize suffering. Mice were fed ad libitum with Mouse Breeder Sterilizable Diet (#7904; Harlan Teklad, Indianapolis, Ind.) and maintained on a 12-hour light/dark cycle. mdx mice from the DBA/2J background were obtained from the Jackson Laboratory (Bar Harbor, Me.; stock #013141) and interbred. Male mice were used for reported experiments. Age at start was approximately 6 months for short-term experiments, approximately 6 weeks for long-term experiments. Dysferlin-null (Dysf-null) mice from the 129T2/SvEmsJ background were previously characterized (Demonbreun et al., 2011; Demonbreun et al., 2014). Age at start was approximately 9 months for long-term experiments. For experiments with Dysf-null and wildtype mice, both females and males (approximately 1:1 ratio) were randomized in treatment groups. […] Dosing was based on weekly weight measurements (1 mg/kg body weight, (Sali et al., 2012)) in 100 μl total PBS volume per dose. Mice were injected daily via intraperitoneal injection at 7 AM. On injection days, stock solutions stored at −20° C. were diluted into sterile Eppendorf tubes containing sterile phosphate buffered saline (PBS) (#14190; Thermo Fisher, Waltham, Mass.). Puromycin (cat #A1113803, Thermo Scientific, Waltham, Mass.) was administered i.p. as 0.040 μmol/body g, and tissues were snap-frozen 30 minutes after injection. Sterile BD Micro-Fine IV Insulin Syringes (#14-829-1A; Fisher Scientific, Waltham, Mass.) were used to inject the intraperitoneal cavity of non-sedated animals. All animal analyses both during treatment and at endpoint were conducted blinded to treatment groups.
Dosing of metabolic and endocrine biomarkers. Glycogen was quantitated using the Glycogen Assay Kit (#ab65620; Abcam, Cambridge, Mass.) from approximately 25 mg frozen-pulverized whole tissue, following manufacturer's instructions and internal standards for calculating μg/mg values. For measurement of whole-tissue ATP/NAD^+ levels, approximately 25 mg frozen-pulverized tissue was extracted in 10% perchloric acid and neutralized in 0.75 M K2CO3, as previously described (Ramsey et al., 2009). NAD+ and ATP were measured by high-pressure liquid chromatography (HPLC) with Shimadzu LC-20A pump (Shimadzu Scientific Instr Inc, Addison, Ill.) and UV-VIS detector, using a Supelco LC-18-T column (15 cm×[…]; #58970-U; Millipore-Sigma, St Louis, Mo.). […] ATP and NAD^+ eluted as sharp peaks at 3 and 14 minutes, respectively, and were normalized to tissue weight of frozen liver tissue for calculating pmol/mg values. Corticosterone was measured in mouse serum and cortisol was measured in human serum using dedicated ELISA kits (#ADI-900-097, Enzo Life Science, Farmingdale, N.Y.; #K7430-100, BioVision, Milpitas, Calif.) according to manufacturer's instructions and internal standards to calculate ng/ml values. Insulin levels were quantitated in mouse and human serum with species-specific ELISA kits (#10-1247-01 (mouse-specific); #10-1113-01 (human-specific); Mercodia, Uppsala, Sweden), following manufacturer's instructions and internal standards to calculate ng/ml values. Free fatty acids were quantitated using Enzychrom Free Fatty Acid Assay kit (#EFFA-100; BioAssay Systems, Hayward, Calif.), following kit's instructions and standards to calculate μM (serum) and nmol/mg (tissue) values.

[2] = test system: BCKDHA and mTOR pathway members in mdx muscle; experiment: Protein analysis of BCKDHA and mTOR pathway members in mdx muscle; type: in vivo, mouse; conditions: weekly prednisone
Protocol: as §1
Protein analysis. Protein lysates from approximately 50 mg muscle tissue were obtained with homogenization at the TissueLyser II (cat #85300; Qiagen, Hilden, Germany) for two rounds of 2 minutes each with 2 minutes pause in between, using sample plates chilled at −20° C. o/n and one stainless 5 mm bead per sample (cat #69989; Qiagen, Hilden, Germany). […]

[3] = mdx muscle, 12-week-long treatment

With C[C@]12C=CC(=O)C=C1CC[C@@H]1[C@@H]2C(=O)C[C@@]2(C)[C@H]1CC[C@]2(O)C(=O)CO [prednisone, Prednisone] the blood glucose [1] was “no change”, the “serum BCAA” value ([1]; mean ± s.e.m) was 462 ± 7.32 µM and the serum corticosterone ([1]; mean ± s.e.m) was 133 ± 8.36 ng/mL. The serum creatine kinase ([1]; mean ± s.e.m) was 3.1 ± 0.16 U/ml, the “serum free fatty acids” value ([1]; mean ± s.e.m) was 547 ± 10.4 µM and the serum insulin ([1]; mean ± s.e.m) was 1.51 ± 0.14 ng/mL. The “serum β-hydroxybutyrate” value ([1]; mean ± s.e.m) was 372 ± 5 µM, the “tissue BCAA, diaphragm” value ([1]; mean ± s.e.m) was 49.4 ± 2.14 nmol/mg and the “tissue BCAA, heart” value ([1]; mean ± s.e.m) was 1.74 ± 0.08 nmol/mg. For the same compound, the “tissue BCAA, omental fat” value ([1]; mean ± s.e.m) was 23.5 ± 0.43 nmol/mg, the “tissue BCAA, quadriceps” value ([1]; mean ± s.e.m) was 95.3 ± 3.21 nmol/mg and the “tissue free fatty acids, heart” value ([1]; mean ± s.e.m) was 0.211 ± 0.01 nmol/mg. For the same compound, the “tissue free fatty acids, omental fat” value ([1]; mean ± s.e.m) was 3.91 ± 0.12 nmol/mg, the “tissue free fatty acids, quadriceps” value ([1]; mean ± s.e.m) was 0.752 ± 0.05 nmol/mg and the “tissue β-hydroxybutyrate, diaphragm” value ([1]; mean ± s.e.m) was 12.9 ± 0.89 nmol/mg. For the same compound, the “tissue β-hydroxybutyrate, heart” value ([1]; mean ± s.e.m) was 20.2 ± 0.51 nmol/mg, the “tissue β-hydroxybutyrate, omental fat” value ([1]; mean ± s.e.m) was 23 ± 1.71 nmol/mg and the “tissue β-hydroxybutyrate, quadriceps” value ([1]; mean ± s.e.m) was 24.7 ± 1.58 nmol/mg. The “levels of mTOR-bound RagC and phosphorylation of S6K and 4EBP1” value [2, 3] was “increased”, the “protein translation and muscle mass (puromycin incorporation and myofiber size)” value [2, 3] was “increased” and the “phosphorylation of BCKDHA” value ([2]; quadriceps muscle of mdx mice) was “reduced”. For the same compound, the “total levels of branched chain keto acid dehydrogenase (BCKDHA)” value ([2]; quadriceps muscle of mdx mice) was “increased”.

Reference: US20220062299A1, “USE OF GLUCOCORTICOID STEROIDS IN PREVENTING AND TREATING CONDITIONS OF MUSCLE WASTING, AGING AND METABOLIC DISORDER” (NORTHWESTERN UNIVERSITY, priority 2018, published 2022)
